Measurements from patent US12624050B2, “Three fused ring derivative-containing salt or crystal form and pharmaceutical composition thereof” (Shanghai Hansoh Biomedical Co., Ltd., priority 2019, dated 2026).

Experiments:
HCC1954 cell = experiment: In vivo efficacy test, HCC1954 tumor-bearing nude mice; parameters: species or system BALB/c nude mice; details: oral, 10 mg/kg, once/day, 21 days (Example 22: 19 days)
Description: • a. A strain of HCC1954 cell was taken from the cell bank, recovered with RPMI-1640 medium (RPMI-1640+10% FBS+1% SP), plated in a cell culture flask (cell type, date, name of the experimenter and the like were labeled on the wall of the flask) and cultured in a CO2 incubator (the temperature was 37° C. and the CO2 concentration was 5% in the incubator). • b. Cells were passaged when they covered 80 to 90% of the bottom of the culture flask. After passage, the cells continued to be cultured in the CO2 incubator. This process was repeated until the number of cells was sufficient for the in vivo efficacy test. • c. The cultured cells were collected and counted with an automatic cell counter, and then resuspended with PBS and Matrigel Matrix according to the counting results to prepare a cell suspension (density 5×10^7/mL), which was placed in an ice box for use. 4.3.2 Cell Inoculation • a. The nude mice were labeled with disposable universal ear tags for rats and mice before inoculation. • b. During the inoculation, the cell suspension was mixed well. 0.1 to 1 mL of the cell suspension was drawn with a 1 mL syringe, air bubbles were removed, and then the syringe was placed on an ice pack for use. • c. The nude mouse was bound with the left hand. The position on the right side of the back close to the right shoulder of the nude mouse (inoculation site) was disinfected with 75% alcohol. Inoculation started after 30 seconds. • d. The test nude mice were successively inoculated (each mouse was inoculated with 0.1 mL of cell suspension). 4.3.3 Tumor Measurement, Grouping and Administration of Tumor-Bearing Mice • a. According to the tumor growth, the tumors was measured on 14 to 18 days after inoculation, and the tumor size was calculated. Calculation of tumor volume: tumor volume (mm^3)=length (mm)×width (mm)×width (mm)/2 • b. The tumor-bearing mice were grouped according to their body weight and tumor size by random grouping. • c. The test compounds were administered according to the grouping results (administration route: oral administration; administration dose: 10 mg/kg; administration volume: 10 mL/kg; administration frequency: once/day; administration cycle: 21 days; vehicle: 0.5% CMC/1% Tween 80). • d. Tumors were measured and weighed twice a week after the administration of test compounds began. • e. Animals were euthanized at the end of the experiment. • f. Data were processed by using softwares such as Excel. […] When the tumor regress, TGI (%)=[1−(average tumor volume of the treatment group at the end of the administration−average tumor volume of the treatment group at the beginning of the administration)/average tumor volume of the treatment group at the beginning of the administration]×100%.

PI3Kγ = target: T1, PI3Kγ (Homo sapiens, UniProt P48736); experiment: ADP-Glo Lipid Kinase Assay, PI3Kγ kinase activity; assay type: biochemical; details: for Selectivity of PI3Kα vs PI3Kγ: ratio of IC50 values
T1 construct: purchased Thermofisher #PV4786
T1 sequence (P48736 whole entry): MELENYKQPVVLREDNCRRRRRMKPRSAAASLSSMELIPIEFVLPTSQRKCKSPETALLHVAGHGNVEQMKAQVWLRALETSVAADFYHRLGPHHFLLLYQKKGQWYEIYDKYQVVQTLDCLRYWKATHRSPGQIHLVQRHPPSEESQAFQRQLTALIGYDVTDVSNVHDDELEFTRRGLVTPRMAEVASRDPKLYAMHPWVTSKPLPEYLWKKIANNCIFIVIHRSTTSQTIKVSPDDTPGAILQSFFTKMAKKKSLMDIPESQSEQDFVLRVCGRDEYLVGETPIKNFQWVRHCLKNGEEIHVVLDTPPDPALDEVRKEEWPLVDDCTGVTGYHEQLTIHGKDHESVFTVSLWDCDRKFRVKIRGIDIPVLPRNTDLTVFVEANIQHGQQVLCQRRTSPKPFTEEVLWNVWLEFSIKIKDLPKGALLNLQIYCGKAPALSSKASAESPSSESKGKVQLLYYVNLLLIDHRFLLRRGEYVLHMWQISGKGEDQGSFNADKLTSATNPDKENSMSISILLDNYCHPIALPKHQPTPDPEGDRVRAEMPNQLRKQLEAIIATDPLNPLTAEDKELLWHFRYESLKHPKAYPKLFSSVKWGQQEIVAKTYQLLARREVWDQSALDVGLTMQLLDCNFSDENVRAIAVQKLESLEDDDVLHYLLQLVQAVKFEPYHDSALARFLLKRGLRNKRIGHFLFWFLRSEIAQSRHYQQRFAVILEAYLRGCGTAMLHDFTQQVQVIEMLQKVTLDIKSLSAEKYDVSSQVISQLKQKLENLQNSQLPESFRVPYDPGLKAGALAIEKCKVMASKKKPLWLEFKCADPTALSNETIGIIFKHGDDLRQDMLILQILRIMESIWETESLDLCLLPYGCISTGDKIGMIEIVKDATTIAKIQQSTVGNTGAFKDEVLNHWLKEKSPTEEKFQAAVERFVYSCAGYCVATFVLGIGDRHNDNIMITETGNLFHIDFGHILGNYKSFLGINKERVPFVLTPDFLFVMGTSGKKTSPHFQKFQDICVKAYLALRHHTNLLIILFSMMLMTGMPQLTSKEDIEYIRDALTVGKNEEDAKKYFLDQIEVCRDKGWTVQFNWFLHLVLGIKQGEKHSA
Description: (§1) In this experiment, ADP-Glo Lipid Kinase Assay (Promega #V9102) from Promega was used. The lipid kinases PI3Kα/β/γ/δ catalyzed the ATP-to-ADP reaction in the presence of the substrate PIP2:3PS and ATP. The lipid kinase activity was characterized by measuring the ADP content in the reaction, and the half inhibition concentrations IC50 of the compounds on PI3Kα/β/γ/δ kinase activity were obtained.
(§2) Kinase reactions were carried out in white 384-well plates (Perkin Elmer #6007299). 2 μL of the compound of various concentrations diluted with ddH2O containing 1% DMSO was added to each well, and 2 μL of ddH2O containing 1% DMSO was added to positive control wells. Then 2 μL of 0.1 to 2 nM PI3K kinase solution diluted with 5× kinase buffer (HEPES 250 mM, MgCl2 15 mM, NaCl 250 mM, BSA 0.05%) was added to each well, and 2 μL of 5× kinase buffer was added to the negative control wells. 4 μL of 50 μM substrate PIP2:3PS (Promega #V1701) prepared with 10× Dilution buffer and ddH2O was added to all wells. Finally, 2 μL of 50 to 100 μM ATP solution diluted with water was added to start the reaction. After the reaction was carried out at room temperature for 90 to 120 minutes, 10 µL of ADP-Glo Reagent (containing 10 mM MgCl2) was added to each well, and the reaction was carried out at room temperature for 60 minutes to eliminate excess adenosine triphosphate (ATP) in the reaction. Then 20 μL of Kinase Detection Reagent was added to each well. After the reaction was carried out for 20 minutes at room temperature in the dark, the chemiluminescence was measured by BioTek Synergy H1 microplate reader.
(§3) The percentage inhibition data of the compound-treated well was calculated from positive control wells (DMSO control wells) and negative control wells (no kinase added) on the plate {% inhibition=100−[(test compound value−negative control value)]/(positive control value-negative control value)×100}. IC50 values were calculated using GraphPad prism and using a four-parameter nonlinear logistic formula to fit the data of different concentrations and corresponding percent inhibition.

HCC1954 (H1047R) = experiment: Proliferation inhibition of PI3Kα mutant cancer cells, Cell Titer-Glo, HCC1954; assay type: cell-based; details: Homo sapiens
Description: (§4) The proliferation inhibitory effect of the compounds of the examples on the PI3Kα mutant cancer cell lines (HCC1954, HGC-27 and MKN1) was detected by Cell Titer-Glo method. Cell lines were cultured in RPMI 1640 medium (Gibco #22400089) containing 10% FBS (Gibco #10091148) and 1% P/S (Hyclone #SV30010) under the condition of 37° C. and 5% CO2. The cells were collected before the experiment, and the cell density was adjusted after cell counting. The cells were seeded in a white 96-well plate (Corning #3610) at a density of 1000 to 10000 cells/well, and incubated in an incubator at 37° C. and 5% CO2 overnight. The prepared compound solutions of different concentrations and the corresponding solvent controls were added to the plate. The plate was again incubated in an incubator at 37° C. and 5% CO2 for 48 to 96 hours. Then the cell plate and its contents were equilibrated to room temperature. 20 to 100 μL of Cell Titer-Glo solution (Promega #G7573) was added to each well, and the plate was shaken and mixed well, then incubated at room temperature for 5 to 30 minutes in the dark. The chemiluminescence was measured by a SynergyH1 microplate reader from BioTek.
(§5) The percentage inhibition data of the compound-treated well was calculated from solvent control wells on the plate {% inhibition=100−([…])×100}. IC50 values were calculated using GraphPad prism and using a four-parameter nonlinear logistic formula to fit the data of different concentrations and corresponding percent inhibition.

PI3Kδ = target: T2, PI3Kδ (Homo sapiens, UniProt O00329); experiment: ADP-Glo Lipid Kinase Assay, PI3Kδ kinase activity; assay type: biochemical; details: for Selectivity of PI3Kα vs PI3Kδ: ratio of IC50 values
T2 construct: purchased Carna #11-103
T2 sequence (O00329 whole entry): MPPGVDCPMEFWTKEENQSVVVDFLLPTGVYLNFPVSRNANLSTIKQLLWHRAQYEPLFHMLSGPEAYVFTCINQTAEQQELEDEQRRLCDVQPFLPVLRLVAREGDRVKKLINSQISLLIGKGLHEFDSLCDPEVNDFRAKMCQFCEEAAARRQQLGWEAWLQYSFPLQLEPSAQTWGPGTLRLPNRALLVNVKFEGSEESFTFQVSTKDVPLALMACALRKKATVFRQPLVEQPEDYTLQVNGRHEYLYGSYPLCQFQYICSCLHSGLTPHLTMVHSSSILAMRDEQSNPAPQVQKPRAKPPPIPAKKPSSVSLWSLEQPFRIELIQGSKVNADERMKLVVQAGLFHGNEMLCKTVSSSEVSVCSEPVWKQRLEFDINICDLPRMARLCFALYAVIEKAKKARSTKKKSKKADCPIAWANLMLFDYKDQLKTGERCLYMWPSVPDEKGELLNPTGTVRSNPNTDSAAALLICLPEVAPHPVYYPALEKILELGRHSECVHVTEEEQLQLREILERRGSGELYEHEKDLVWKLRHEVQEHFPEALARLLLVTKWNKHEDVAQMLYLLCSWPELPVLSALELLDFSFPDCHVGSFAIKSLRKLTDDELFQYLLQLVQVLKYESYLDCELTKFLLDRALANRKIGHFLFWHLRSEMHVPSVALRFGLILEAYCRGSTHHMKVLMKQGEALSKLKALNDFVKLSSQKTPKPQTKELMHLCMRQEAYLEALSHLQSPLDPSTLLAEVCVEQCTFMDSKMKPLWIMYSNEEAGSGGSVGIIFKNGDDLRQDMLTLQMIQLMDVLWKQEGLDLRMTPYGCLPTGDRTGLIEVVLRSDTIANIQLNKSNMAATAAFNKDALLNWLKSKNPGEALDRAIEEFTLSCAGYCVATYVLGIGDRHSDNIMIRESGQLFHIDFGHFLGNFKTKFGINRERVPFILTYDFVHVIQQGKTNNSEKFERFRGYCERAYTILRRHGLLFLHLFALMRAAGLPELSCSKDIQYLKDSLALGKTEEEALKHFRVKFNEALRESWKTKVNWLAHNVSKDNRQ
T2 sequence (P27986 whole entry partner): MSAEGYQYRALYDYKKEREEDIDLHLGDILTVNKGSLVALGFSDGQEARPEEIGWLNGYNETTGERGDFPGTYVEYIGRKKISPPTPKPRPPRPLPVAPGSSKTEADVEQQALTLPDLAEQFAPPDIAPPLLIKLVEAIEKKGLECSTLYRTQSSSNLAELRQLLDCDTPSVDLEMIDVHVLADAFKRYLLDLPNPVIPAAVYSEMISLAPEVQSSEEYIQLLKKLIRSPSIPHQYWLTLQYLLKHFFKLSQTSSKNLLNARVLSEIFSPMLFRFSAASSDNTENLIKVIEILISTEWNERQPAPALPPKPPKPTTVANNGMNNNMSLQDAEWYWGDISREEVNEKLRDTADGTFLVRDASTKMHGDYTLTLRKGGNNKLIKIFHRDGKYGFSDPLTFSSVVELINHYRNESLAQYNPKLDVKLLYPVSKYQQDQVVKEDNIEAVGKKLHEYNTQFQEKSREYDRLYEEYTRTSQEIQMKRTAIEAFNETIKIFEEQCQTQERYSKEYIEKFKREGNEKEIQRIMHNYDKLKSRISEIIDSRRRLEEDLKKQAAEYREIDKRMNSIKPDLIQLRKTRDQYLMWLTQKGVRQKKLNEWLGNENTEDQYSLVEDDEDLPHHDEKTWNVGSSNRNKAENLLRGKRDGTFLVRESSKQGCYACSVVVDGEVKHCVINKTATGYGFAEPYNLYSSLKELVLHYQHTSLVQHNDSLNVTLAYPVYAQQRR
Description: as §1, §2, §3

MKN1 (E545K) = experiment: Proliferation inhibition of PI3Kα mutant cancer cells, Cell Titer-Glo, MKN1; assay type: cell-based; details: Homo sapiens, MKN-1
Description: as §4, §5

PI3Kβ = target: T3, PI3Kβ (Homo sapiens, UniProt P42338); experiment: ADP-Glo Lipid Kinase Assay, PI3Kβ kinase activity; assay type: biochemical; details: for Selectivity of PI3Kα vs PI3Kβ: ratio of IC50 values
T3 construct: purchased Carna #11-102
T3 sequence (P42338 whole entry): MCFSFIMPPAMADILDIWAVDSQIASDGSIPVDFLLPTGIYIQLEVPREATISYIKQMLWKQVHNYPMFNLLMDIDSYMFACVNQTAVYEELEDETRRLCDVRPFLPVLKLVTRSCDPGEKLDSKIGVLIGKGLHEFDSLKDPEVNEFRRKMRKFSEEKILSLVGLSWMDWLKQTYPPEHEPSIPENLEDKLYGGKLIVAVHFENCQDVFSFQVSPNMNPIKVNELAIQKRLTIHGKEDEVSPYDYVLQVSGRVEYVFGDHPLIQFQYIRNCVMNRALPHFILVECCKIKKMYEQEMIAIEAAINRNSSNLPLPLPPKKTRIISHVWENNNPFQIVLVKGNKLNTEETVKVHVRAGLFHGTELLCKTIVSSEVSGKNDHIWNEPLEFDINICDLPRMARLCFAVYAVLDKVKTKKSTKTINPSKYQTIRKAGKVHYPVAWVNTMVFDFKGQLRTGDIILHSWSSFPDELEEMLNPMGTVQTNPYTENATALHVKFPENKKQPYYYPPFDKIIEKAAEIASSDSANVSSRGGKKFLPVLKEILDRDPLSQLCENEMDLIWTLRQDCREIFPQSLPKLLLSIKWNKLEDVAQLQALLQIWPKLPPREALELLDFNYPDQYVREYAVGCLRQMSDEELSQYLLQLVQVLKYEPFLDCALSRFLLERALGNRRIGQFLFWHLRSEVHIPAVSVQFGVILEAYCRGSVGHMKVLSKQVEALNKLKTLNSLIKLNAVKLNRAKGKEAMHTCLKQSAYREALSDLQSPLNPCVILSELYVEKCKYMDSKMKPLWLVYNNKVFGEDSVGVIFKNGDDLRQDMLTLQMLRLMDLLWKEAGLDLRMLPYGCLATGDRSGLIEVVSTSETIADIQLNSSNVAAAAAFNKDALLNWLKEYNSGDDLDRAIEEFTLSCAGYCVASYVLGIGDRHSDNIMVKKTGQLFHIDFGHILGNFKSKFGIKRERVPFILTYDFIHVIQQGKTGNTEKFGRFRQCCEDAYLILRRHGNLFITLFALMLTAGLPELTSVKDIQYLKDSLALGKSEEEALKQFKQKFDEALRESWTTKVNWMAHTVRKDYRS
T3 sequence (P27986 whole entry partner): as the sequence (P27986 whole entry partner) above
Description: as §1, §2, §3

HGC-27 (E542K) = experiment: Proliferation inhibition of PI3Kα mutant cancer cells, Cell Titer-Glo, HGC-27; assay type: cell-based; details: Homo sapiens
Description: as §4, §5

SMILES | Tumor growth inhibition rate (HCC1954 cell) | Selectivity of PI3Kα vs PI3Kγ (PI3Kγ) | IC50 (HCC1954 (H1047R)) | Selectivity of PI3Kα vs PI3Kδ (PI3Kδ) | IC50 (MKN1 (E545K)) | Selectivity of PI3Kα vs PI3Kβ (PI3Kβ) | IC50 (HGC-27 (E542K)) | IC50 (PI3Kγ) | IC50 (PI3Kδ) | IC50 (PI3Kβ)
C[C@H](Nc1ccc2c(c1)OCCn1cc(N3C(=O)SC[C@H]3C(F)F)nc1-2)C(N)=O [Example 22, (S)-2-((2-((R)-4-(difluoromethyl)-2-oxothiazolidin-3-yl)-5,6-dihydrobenzo[f]imidazo[1,2-d][1,4]oxazepin-9-yl)amino)propionamide] | 132% | 450 | 0.021 µM | 245 | 0.06 µM | 840 | 0.04 µM | – | – | –
C[C@H](Nc1ccc2c(c1)N(C)CCn1cc(N3C(=O)OC[C@H]3C(F)F)nc1-2)C(N)=O [Example 56, (S)-2-((2-((S)-4-(difluoromethyl)-2-oxooxazolidin-3-yl)-7-methyl-6,7-dihydro-5H-benzo[f]imidazo[1,2-d][1,4]diazoheptin-9-yl)amino)propionamide] | 122% | 180 | 0.05 µM | 98 | 0.104 µM | 336 | 0.11 µM | 0.09 µM | 0.049 µM | 0.168 µM
C[C@H](Nc1ccc2c(c1)SCCn1cc(N3C(=O)OC[C@H]3C(F)F)nc1-2)C(N)=O [Example 62, (S)-2-((2-((S)-4-(difluoromethyl)-2-oxooxazolidin-3-yl)-5,6-dihydrobenzo[f]imidazo[1,2-d][1,4]thiazepin-9-yl)amino)propionamide] | 147% | 500 | 0.013 µM | 280 | 0.025 µM | 1020 | 0.022 µM | 0.05 µM | 0.028 µM | 0.102 µM
